Earlier results as cited in patent publication US20140220080A1, “IgA SECRETION PROMOTER” (MATSUTANI CHEMICAL INDUSTRY CO., LTD., priority 2013, published 2014).

Tested on: IgA
Conditions: Patent Literature 1, 2; Non-Patent Literature 1-3

OC[C@H]1O[C@@H](O[C@H]2[C@H](O)[C@@H](O)[C@@H](O[C@]3(CO)O[C@H](CO)[C@@H](O)[C@@H]3O)O[C@@H]2CO)[C@H](O)[C@@H](O)[C@H]1O [lactosucrose]
action of promoting IgA secretion: have an action of promoting IgA secretion
